Data reported in patent publication US6525059B1, “Substituted pyrazoles as p38 kinase inhibitors” (G. D. Searle & Company, priority 1998, dated 2003).
Read-outs that look alike come from different tables or passages of the source.

Experiments:
human p38 kinase alpha = target: T1, human p38 kinase alpha (Homo sapiens, UniProt Q16539); assay: p38 kinase in vitro assay, phosphorylation of biotinylated PHAS-I with gamma 32P-ATP; type: biochemical; conditions: for inhibition at 10 µM / inhibition at 1 µM: read-out: P38 alpha kinase % inhib @ conc.
T1 construct: The coding region of the human p38a cDNA was obtained by PCR-amplification from RNA isolated from the human monocyte cell line THP.1; GST (N); made in house; host or cells: E. coli DH10B
T1 sequence (Q16539 whole entry): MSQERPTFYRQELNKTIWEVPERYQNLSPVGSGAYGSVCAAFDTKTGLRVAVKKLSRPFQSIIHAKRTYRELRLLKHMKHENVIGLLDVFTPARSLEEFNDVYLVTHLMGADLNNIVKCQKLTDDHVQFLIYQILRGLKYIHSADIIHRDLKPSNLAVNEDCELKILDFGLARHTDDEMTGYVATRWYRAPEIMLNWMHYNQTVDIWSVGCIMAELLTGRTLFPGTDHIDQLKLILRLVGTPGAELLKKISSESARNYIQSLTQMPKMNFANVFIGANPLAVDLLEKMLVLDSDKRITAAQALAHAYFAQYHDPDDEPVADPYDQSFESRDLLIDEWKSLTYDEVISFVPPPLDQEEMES
Method in brief: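 Radiometric filter-capture read-out: streptavidin plates trap biotin-PHAS-I labelled by activated (MKK6) human p38α from γ-32P-ATP. Buffer 25 mM HEPES pH 7.5, 10 mM magnesium acetate, 50 μM cold ATP; reactions 1 h or overnight at 30 °C; inhibitors 10-fold dilutions 100 to 0.001 μM, triplicates, 1% DMSO.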

TNF-α = assay: LPS stimulation of TNF production by U937 cells; type: cell-based, human; conditions: for inhibition at 1 µM: U-937, @ 1.0 uM, read-out: U937 Cell % inhib @ conc.
Protocol: Fifty million cells in 100 ml media were induced to terminal monocytic differentiation by 24 hour incubation with 20 ng/ml phorbol 12-myristate 13-acetate (Sigma). The cells were washed by centrifugation (200×g for 5 min) and resuspended in 100 ml fresh medium. After 24-48 hours, the cells were harvested, centrifuged, and resuspended in culture medium at 2 million cells/ml.
Compounds were prepared as 10 mM stock solutions in DMSO and diluted in culture medium to yield a final DMSO concentration of 0.1% in the cell assay. LPS (E coli, 100 ng/ml final concentration) was then added at a volume of 0.02 ml. After 4 hour incubation at 37° C., the amount of TNF-α released in the culture medium was quantitated by ELISA. Inhibitory potency is expressed as IC50 (μM).
In vitro whole cell assay for measuring the ability of the compounds to inhibit TNF production in human U937 cells stimulated with LPS are shown in the column identified as: […]

[1] = read-out: P38 alpha kinase IC50
[2] = Homo sapiens, U-937, TNF production, LPS-stimulated human U937 cells, read-out: U937 Cell IC50

Structure (SMILES) | IC50 (human p38 kinase alpha; [1]) [µM] | inhibition at 1 µM (TNF-α; Homo sapiens) [%] | also measured
O=C(NCc1[nH]nc(-c2ccc(F)cc2)c1-c1ccncc1)c1c(F)cccc1C(F)(F)F [Example B-0284] | 0.083 | 65 | 
O=C(NCc1[nH]nc(-c2ccc(F)cc2)c1-c1ccncc1)Nc1ccccc1 [Example B-0175] |  | 31 | inhibition at 10 µM (human p38 kinase alpha): 41%
C[C@@H](NC(=O)N(C)C)c1[nH]nc(-c2ccc(F)cc2)c1-c1ccncc1 [Example B-0407] | 0.76 | 27 | 
C[C@@H](NC(=O)C1CCC1)c1[nH]nc(-c2ccc(F)cc2)c1-c1ccncc1 [Example B-0360] | 1.6 | 19 | 
CCCCCCCCS(=O)(=O)NCc1[nH]nc(-c2ccc(F)cc2)c1-c1ccncc1 [Example B-0142] |  | 12 | inhibition at 1 µM (human p38 kinase alpha; @ 1.0 uM): 86%
O=S(=O)(NCc1[nH]nc(-c2ccc(F)cc2)c1-c1ccncc1)c1ccc(F)cc1 [Example B-0104] |  |  | inhibition at 1 µM (human p38 kinase alpha; @ 1.0 uM): 56%; IC50 (TNF-α; [2]): 2.78 µM
C=CCOC(=O)NCc1[nH]nc(-c2ccc(F)cc2)c1-c1ccncc1 [Example B-0033] |  |  | P38 alpha kinase % inhib @ conc. (human p38 kinase alpha; @ 1.0 uM): 97.0% @ 1.0 uM; IC50 (TNF-α; TNF production, LPS-stimulated human U937 cells, read-out: U937 Cell IC50): 10 µM
C[C@@H](NC(=O)c1cccs1)c1[nH]nc(-c2ccc(F)cc2)c1-c1ccncc1 [Example B-0528] | 0.14 | 70 | 
O=C(NCc1[nH]nc(-c2ccc(F)cc2)c1-c1ccncc1)c1cnc2ccccc2n1 [Example B-0206] | 5.76 | 14 | 
COc1ccc(CC(=O)N[C@H](C)c2[nH]nc(-c3ccc(F)cc3)c2-c2ccncc2)cc1 [Example B-0372] | 0.35 | 29 | 
O=C(NCc1[nH]nc(-c2ccc(F)cc2)c1-c1ccncc1)c1ccc(C(F)(F)F)cc1 [Example B-0302] | 4.02 | 24 | 
CCNC(=O)NCc1[nH]nc(-c2ccc(F)cc2)c1-c1ccncc1 [Example B-0212] | 0.12 | 28 | 
COc1cc(OC)c(NC(=O)NCc2[nH]nc(-c3ccc(F)cc3)c2-c2ccncc2)cc1Cl [Example B-0187] |  | 14 | inhibition at 10 µM (human p38 kinase alpha): 4%
CC(NC(=O)Cc1cccs1)c1[nH]nc(-c2ccc(F)cc2)c1-c1ccncc1 (stereo not drawn) [Example B-0600] | 0.002 |  | U937 Cell % inhib @ conc. (TNF-α; @ 1.0 uM): 28.0% @ 1.0 uM
C[C@@H](NS(=O)(=O)c1cccc(C(F)(F)F)c1)c1[nH]nc(-c2ccc(F)cc2)c1-c1ccncc1 [Example B-0471] | 0.027 | 97 | 
O=S(=O)(NCc1[nH]nc(-c2ccc(F)cc2)c1-c1ccncc1)c1cccc2ccccc12 [Example B-0111] |  |  | inhibition at 1 µM (human p38 kinase alpha; @ 1.0 uM): 57%; IC50 (TNF-α; [2]): > 1 µM
CC(=O)O[C@@H](C)C(=O)N[C@H](C)c1[nH]nc(-c2ccc(F)cc2)c1-c1ccncc1 [Example B-0365] | 0.96 | 27 | 
C[C@@H](NC(=O)c1cc(F)cc(C(F)(F)F)c1)c1[nH]nc(-c2ccc(F)cc2)c1-c1ccncc1 [Example B-0513] | 0.72 | 52 | 
O=S(=O)(NCc1[nH]nc(-c2ccc(F)cc2)c1-c1ccncc1)c1cc(Cl)cc(Cl)c1O [Example B-0103] |  | 6 | inhibition at 1 µM (human p38 kinase alpha; @ 1.0 uM): 71%
CC(NS(=O)(=O)CC12CCC(CC1=O)C2(C)C)c1[nH]nc(-c2ccc(F)cc2)c1-c1ccncc1 (stereo not drawn) [Example B-0434] | 0.12 | 65 | 
CCCNC(=O)N[C@H](C)c1[nH]nc(-c2ccc(F)cc2)c1-c1ccncc1 [Example B-0413] | 0.18 | 55 | 
C[C@@H](NC(=O)c1c(F)cccc1C(F)(F)F)c1[nH]nc(-c2ccc(F)cc2)c1-c1ccncc1 [Example B-0509] | 0.1 | 86 | 
C[C@@H](NC(=O)c1ccc(Cl)cc1)c1[nH]nc(-c2ccc(F)cc2)c1-c1ccncc1 [Example B-0493] | 0.3 | 36 | 

Structure (SMILES) | IC50 (human p38 kinase alpha; [1]) [µM] | inhibition at 1 µM (TNF-α; Homo sapiens) [%] | also measured
Cc1onc(-c2c(F)cccc2Cl)c1C(=O)NCc1[nH]nc(-c2ccc(F)cc2)c1-c1ccncc1 [Example B-0055] |  |  | inhibition at 1 µM (human p38 kinase alpha; @ 1.0 uM): 93%; IC50 (TNF-α; [2]): > 1 µM
O=C(NCc1[nH]nc(-c2ccc(F)cc2)c1-c1ccncc1)Nc1ccccc1-c1ccccc1 [Example B-0181] |  | 2 | inhibition at 1 µM (human p38 kinase alpha; @ 1.0 uM): 5%
C[C@@H](NC(=O)c1cccc(F)c1)c1[nH]nc(-c2ccc(F)cc2)c1-c1ccncc1 [Example B-0517] | 0.094 | 52 | 
CSc1cccc(NC(=O)NCc2[nH]nc(-c3ccc(F)cc3)c2-c2ccncc2)c1 [Example B-0145] |  | 12 | inhibition at 10 µM (human p38 kinase alpha): 54%
CC(C)C(=O)NCc1[nH]nc(-c2ccc(F)cc2)c1-c1ccncc1 [Example B-0010] | 0.52 |  | IC50 (TNF-α; [2]): 0.65 µM
Cc1c(C)c(S(=O)(=O)N[C@H](C)c2[nH]nc(-c3ccc(F)cc3)c2-c2ccncc2)c(C)c2c1OC(C)(C)CC2 [Example B-0482] | 0.97 | 68 | 
Cc1ccc(S(=O)(=O)N[C@@H](Cc2ccccc2)C(=O)N[C@H](C)c2[nH]nc(-c3ccc(F)cc3)c2-c2ccncc2)cc1 [Example B-0383] | 1.43 | 10 | 
CC(C)COC(=O)N[C@H](C)c1[nH]nc(-c2ccc(F)cc2)c1-c1ccncc1 [Example B-0382] | 0.41 | 32 | 
O=C(NCc1[nH]nc(-c2ccc(F)cc2)c1-c1ccncc1)C(F)(F)F [Example B-0210] | 0.057 | 67 | 
C[C@@H](NC(=O)c1ccc(F)cc1C(F)(F)F)c1[nH]nc(-c2ccc(F)cc2)c1-c1ccncc1 [Example B-0511] | 0.007 | 90 | 
Cc1ccccc1C(=O)N[C@H](C)c1[nH]nc(-c2ccc(F)cc2)c1-c1ccncc1 [Example B-0492] | 0.069 | 42 | 
O=C(NCc1[nH]nc(-c2ccc(F)cc2)c1-c1ccncc1)c1cccc(Cl)c1Cl [Example B-0279] | 1.39 | 33 | 
Fc1ccc(-c2n[nH]cc2-c2ccnc3ccccc23)cc1 [Example A-291] |  |  | IC50 (human p38 kinase alpha; p38α in vitro, PHAS-I assay procedure, read-out: p38^1 IC50): 0.388 µM; IC50 (TNF-α; Homo sapiens, U-937, LPS-stimulated U937 cells, read-out: U937 IC50): 1.13 µM
CCOC(=O)NCc1[nH]nc(-c2ccc(F)cc2)c1-c1ccncc1 [Example B-0204] | 0.21 | 48 | 
O=S(=O)(NCc1[nH]nc(-c2ccc(F)cc2)c1-c1ccncc1)c1c(Cl)cccc1Cl [Example B-0233] | 0.095 | 43 | 
O=C(NCc1[nH]nc(-c2ccc(F)cc2)c1-c1ccncc1)c1ccc(F)c(F)c1 [Example B-0276] | 1.25 | 26 | 
O=C(NCc1[nH]nc(-c2ccc(F)cc2)c1-c1ccncc1)c1c(F)cccc1F [Example B-0298] | 0.58 | 48 | 
O=C(NCc1[nH]nc(-c2ccc(F)cc2)c1-c1ccncc1)c1cc(C(F)(F)F)ccc1F [Example B-0281] | 7.37 | 24 | 
O=C(NCc1[nH]nc(-c2ccc(F)cc2)c1-c1ccncc1)c1cccnc1 [Example B-0200] | 1.31 | 16 | 
O=S(=O)(NCc1[nH]nc(-c2ccc(F)cc2)c1-c1ccncc1)c1ccc(Cl)cc1 [Example B-0225] | 0.047 | 37 | 
C[C@@H](NC(=O)Nc1cccc(F)c1)c1[nH]nc(-c2ccc(F)cc2)c1-c1ccncc1 [Example B-0418] | 0.22 | 27 | 
Cc1ccccc1S(=O)(=O)N[C@H](C)c1[nH]nc(-c2ccc(F)cc2)c1-c1ccncc1 [Example B-0469] | 0.056 | 92 | 
